The assay deals with T1, sGC (Homo sapiens, UniProt Q02108+Q02153).
T1 construct: Preparation of LNCap Cells; endogenous in cells; host or cells: LNCaP cells (14th generation), no transfection described
T1 sequence (Q02153 1-619): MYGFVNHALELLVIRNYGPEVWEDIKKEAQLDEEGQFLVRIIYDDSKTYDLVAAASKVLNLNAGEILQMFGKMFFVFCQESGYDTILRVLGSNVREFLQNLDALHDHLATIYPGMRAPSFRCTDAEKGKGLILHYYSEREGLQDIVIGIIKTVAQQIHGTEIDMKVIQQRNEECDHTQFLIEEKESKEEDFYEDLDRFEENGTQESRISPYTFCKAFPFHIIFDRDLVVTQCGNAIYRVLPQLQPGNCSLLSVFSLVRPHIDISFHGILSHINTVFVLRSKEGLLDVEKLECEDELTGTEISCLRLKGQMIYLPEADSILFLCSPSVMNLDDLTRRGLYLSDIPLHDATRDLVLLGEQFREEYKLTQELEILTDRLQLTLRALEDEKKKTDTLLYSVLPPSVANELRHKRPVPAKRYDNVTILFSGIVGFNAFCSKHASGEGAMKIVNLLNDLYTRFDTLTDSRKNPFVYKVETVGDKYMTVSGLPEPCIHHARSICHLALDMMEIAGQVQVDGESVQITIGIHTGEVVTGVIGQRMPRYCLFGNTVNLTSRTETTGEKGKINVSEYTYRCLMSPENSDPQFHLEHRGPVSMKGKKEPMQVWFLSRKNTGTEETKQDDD
T1 sequence (Q02108 1-690): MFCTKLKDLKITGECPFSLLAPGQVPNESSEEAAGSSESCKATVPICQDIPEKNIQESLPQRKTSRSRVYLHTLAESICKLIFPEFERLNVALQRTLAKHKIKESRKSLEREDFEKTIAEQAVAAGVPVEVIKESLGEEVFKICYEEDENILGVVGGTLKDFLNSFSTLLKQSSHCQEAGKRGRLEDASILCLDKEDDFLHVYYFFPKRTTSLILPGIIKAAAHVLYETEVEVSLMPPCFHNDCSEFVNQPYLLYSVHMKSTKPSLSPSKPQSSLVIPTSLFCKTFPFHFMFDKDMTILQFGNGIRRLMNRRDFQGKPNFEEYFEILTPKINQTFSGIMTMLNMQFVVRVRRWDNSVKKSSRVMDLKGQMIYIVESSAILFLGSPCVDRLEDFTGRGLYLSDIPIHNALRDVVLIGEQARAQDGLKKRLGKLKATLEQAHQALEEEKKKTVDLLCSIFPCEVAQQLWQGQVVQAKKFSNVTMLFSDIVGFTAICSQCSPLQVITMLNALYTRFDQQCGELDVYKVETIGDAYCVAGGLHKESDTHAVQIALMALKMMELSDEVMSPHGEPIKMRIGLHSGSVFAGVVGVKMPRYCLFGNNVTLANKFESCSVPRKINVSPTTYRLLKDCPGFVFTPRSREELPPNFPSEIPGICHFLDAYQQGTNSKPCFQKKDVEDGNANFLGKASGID
The experiment in a line: lnCap cell-based cGMP expression assay (stimulating activity for sGC). The conditions noted are these: with DETA-NO, 37° C. 30 min, HTRF cGMP. Here is the method:
I. lnCap Cell-Based cGMP Expression Assay
1) Preparation of Solutions
10% BSA (Bovine Serum Albumin)
10 g of BSA was dissolved in 100 mL of double distilled water (ddH2O) to give 10% BSA.
5 mM DETA (Diethylenetriamine)-NO
10 mg of DETA-NO was weighed out and dissolved in 12.2 mL of double distilled water (ddH2O) to give 5 mM DETA-NO, which was aliquoted and cryopreserved in a freezer at −20° C.
a) To 1 mL of a lysis buffer was added 50 μL of cGMP-D2 (D2-labeled cyclic guanosine monophosphate), and the mixture was well mixed.
b) To 1 mL of a lysis buffer was added 50 μL of anti-cGMP cryptate (Eu^3+ cryptate-labeled anti-cyclic guanosine monophosphate antibody), and the mixture was well mixed.
(1) The compounds were diluted to 5 mM with DMSO. 10 μL of each of the compounds was transferred to a shallow well plate for Echo.
(2) The compounds were gradiently diluted with Echo. Each of the compounds was diluted to obtain 10 concentration gradients, and 50 nL of each of the concentration gradients was added to a 384 microwell plate.
3) Preparation of LNCap Cells
(1) LNCap medium: RPMI1640+10% fetal bovine serum+1% […].
(2) Phosphate buffered saline, pancreatin and the medium used in the process of cell passaging were pre-heated in a water bath at 37° C.
(3) The cells (the 14th generation) were taken out of the 37° C., 5% CO2 incubator, and the old medium was pipetted off the culture flask.
(4) 5 mL of phosphate buffered saline was pipetted into the culture flask to rinse the cells, and then the liquid was discarded.
(5) 3 mL of pancreatin was pipetted into the culture flask. After the culture flask was shaken, the liquid was discarded, and the culture flask was placed in the incubator.
(6) After about 2 min the culture flask was taken out. […] The cell suspension was transferred to a 50 mL centrifuge tube.
(7) 0.7 mL of the cell suspension was pipetted into a counter cup and the cells were counted on a ViCell XR. The remaining cells were centrifuged at 1000 rpm for 5 min, and the supernatant was removed.
(8) The cells were washed by adding 10 mL of the washing buffer and centrifuged at 1000 rpm for 5 min, and the supernatant was removed.
(9) The assay buffer was added to adjust the cell concentration to 1.25×10^6/mL. The cells were added to the microwell plate at 8 μL/well.
4) Formulation and Addition of DETA-NO
(1) 10 μL of 5 mM DETA-NO was added to 1240 μL of the assay buffer and to 1657 μL of the assay buffer to give 40 μM DETA-NO and 30 μM DETA-NO, respectively.
(2) DETA-NO was transferred to the 384 microwell plate at 2 μL/well using Bravo.
(3) The mixtures were centrifuged at 1500 rpm for 5 min. The microwell plate was incubated at 37° C. for 30 min.
5) Preparation of cGMP Standard Curve
(1) 1 mM of the cGMP stock solution was diluted to 10 μM with the assay buffer. Then 4-fold gradient dilution was performed to obtain 11 concentration gradients.
(2) The cGMP dilutions were added to the microwell plate at 10 μL/well.
6) Addition of Detection Reagents and Plate Reading
(1) cGMP-D2 was transferred to the 384 microwell plate at 5 μL/well using Bravo. The mixtures were centrifuged at 1500 rpm for 1 min.
(2) The anti-cGMP cryptate was transferred to the 384 microwell plate at 5 μL/well using Bravo. The mixtures were centrifuged at 1500 rpm for 1 min.
(3) The plate was incubated at room temperature for 1 h.
(4) 665/615 was read using envision.
(1) cGMP standard curve: a standard curve was generated using Graphpad prism based on the cGMP concentrations and 665/615 ratios.
(2) Conversion of HTRF (homogeneous time-resolved fluorescence) ratios (665/615) to cGMP concentrations: in Graphpad prism, the HTRF ratios (665/615) were copied into the ratio column of the cGMP standard curve, and the “Log inhibitor vs response-variable slope” analysis was run with “interpolate” selected to convert the HTRF ratios (665/615) to cGMP concentrations. […]
(Time-resolved FRET reads energy transfer from a long-lived donor to a nearby acceptor.)
On to `CCOC(=O)C12CCOc3nc(-c4nn(Cc5ccccc5F)c5ncc(F)cc45)nc(c31)NC2=O` (stereo not drawn) [Compound 048], for which the “MEC: minimum effective concentration to stimulate cGMP production (three times greater than the basal value) in lnCap cells” value (from here on “MEC: minimum effective concentration”) is 33.55 nM.

For `COC(=O)NC12CCOc3nc(-c4nn(Cc5ccccc5F)c5ncc(F)cc45)nc(c31)NC2=O` (stereo not drawn) [Compound 049], the “MEC: minimum effective concentration” value is on record as 126.5 nM.

On to `CCNC(=O)OC12CCOc3nc(-c4nn(Cc5ccccc5F)c5ncc(F)cc45)nc(c31)NC2=O` (stereo not drawn) [Compound 050], for which the “MEC: minimum effective concentration” value was 231.7 nM.

The values are drawn from patent US20230257398A1, “PYRIMIDINE-BASED TRICYCLIC COMPOUND AND USE THEREOF” (Chia Tai Tianqing Pharmaceutical Group Co., Ltd., priority 2020, published 2023).
